pEC50, pIC50: −log10 of the molar value.
Columns and labels:
THP-1 [1] = assay: Effect on ABCA1 gene expression in human differentiated THP1 cells; type: functional, cell-based
[2] = target: T1, Nuclear receptor subfamily 1 group I member 2 (Homo sapiens, UniProt O75469)
T1 sequence (O75469 whole entry): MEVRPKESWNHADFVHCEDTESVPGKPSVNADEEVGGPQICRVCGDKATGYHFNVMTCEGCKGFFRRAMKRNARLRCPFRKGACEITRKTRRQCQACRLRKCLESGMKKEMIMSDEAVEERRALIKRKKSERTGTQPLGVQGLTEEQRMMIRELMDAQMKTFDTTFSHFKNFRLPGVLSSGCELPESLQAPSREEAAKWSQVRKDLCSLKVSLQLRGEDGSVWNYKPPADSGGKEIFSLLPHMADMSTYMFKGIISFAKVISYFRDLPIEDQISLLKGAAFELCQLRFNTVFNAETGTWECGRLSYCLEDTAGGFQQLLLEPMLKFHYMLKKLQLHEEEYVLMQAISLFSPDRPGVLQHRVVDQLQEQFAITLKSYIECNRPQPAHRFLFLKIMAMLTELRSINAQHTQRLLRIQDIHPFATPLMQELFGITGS

THP-1 [3] = assay: Stimulation of [3H]cholesterol efflux in human THP1 foam cells loaded with ac-LDL; type: functional, cell-based
HepG2 [4] = assay: Effect on triglyceride accumulation in human HepG2 cells relative to TO901317; type: functional
[5] = target: T2, Oxysterols receptor LXR-alpha (Homo sapiens, UniProt Q13133)
[6] = target: T2, Oxysterols receptor LXR-alpha; remark: listed apart in the source
HepG2 [7] = assay: Effect on SREBP1c gene expression in human HepG2 cells relative to TO901317; type: functional
HepG2 [8] = assay: Effect on triglyceride accumulation in human HepG2 cells; type: functional, cell-based
THP-1 [9] = assay: Stimulation of [3H]cholesterol efflux in human THP1 foam cells loaded with ac-LDL relative to TO901317; type: functional
Glucocorticoid receptor = target: T3, Glucocorticoid receptor (Homo sapiens, UniProt P04150); assay: Displacement of radiolabeled Dexamethasone from human glucocorticoid receptor by filter paper assay
T3 sequence (P04150 whole entry): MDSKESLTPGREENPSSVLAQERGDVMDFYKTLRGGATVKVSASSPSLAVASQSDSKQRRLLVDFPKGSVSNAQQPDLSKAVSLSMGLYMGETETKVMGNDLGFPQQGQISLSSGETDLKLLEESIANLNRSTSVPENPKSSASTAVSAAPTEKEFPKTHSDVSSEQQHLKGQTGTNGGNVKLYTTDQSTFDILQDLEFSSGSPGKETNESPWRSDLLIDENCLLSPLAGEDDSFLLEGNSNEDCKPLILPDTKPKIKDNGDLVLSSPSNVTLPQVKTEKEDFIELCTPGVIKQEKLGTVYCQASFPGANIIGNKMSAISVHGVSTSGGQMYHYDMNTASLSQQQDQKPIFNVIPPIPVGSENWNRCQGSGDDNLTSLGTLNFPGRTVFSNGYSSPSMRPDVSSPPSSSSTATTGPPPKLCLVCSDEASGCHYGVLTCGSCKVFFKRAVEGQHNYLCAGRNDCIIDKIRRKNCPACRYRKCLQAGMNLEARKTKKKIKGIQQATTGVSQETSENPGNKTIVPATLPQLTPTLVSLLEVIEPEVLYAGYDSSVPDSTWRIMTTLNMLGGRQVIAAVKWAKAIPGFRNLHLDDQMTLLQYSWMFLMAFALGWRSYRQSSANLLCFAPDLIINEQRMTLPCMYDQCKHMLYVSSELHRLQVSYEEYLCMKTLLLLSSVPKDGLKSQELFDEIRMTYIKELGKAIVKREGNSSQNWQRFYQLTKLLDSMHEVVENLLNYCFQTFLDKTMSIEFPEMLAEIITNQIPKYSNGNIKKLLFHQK

[10] = target: T4, Oxysterols receptor LXR-beta (Homo sapiens, UniProt P55055); assay: Agonist activity at human recombinant LXRbeta ligand binding domain in human HuH7 cells co-transfected with fused Gal4-DBD by transactivation assay; type: cell-based, Huh-7
T4 sequence (P55055 whole entry): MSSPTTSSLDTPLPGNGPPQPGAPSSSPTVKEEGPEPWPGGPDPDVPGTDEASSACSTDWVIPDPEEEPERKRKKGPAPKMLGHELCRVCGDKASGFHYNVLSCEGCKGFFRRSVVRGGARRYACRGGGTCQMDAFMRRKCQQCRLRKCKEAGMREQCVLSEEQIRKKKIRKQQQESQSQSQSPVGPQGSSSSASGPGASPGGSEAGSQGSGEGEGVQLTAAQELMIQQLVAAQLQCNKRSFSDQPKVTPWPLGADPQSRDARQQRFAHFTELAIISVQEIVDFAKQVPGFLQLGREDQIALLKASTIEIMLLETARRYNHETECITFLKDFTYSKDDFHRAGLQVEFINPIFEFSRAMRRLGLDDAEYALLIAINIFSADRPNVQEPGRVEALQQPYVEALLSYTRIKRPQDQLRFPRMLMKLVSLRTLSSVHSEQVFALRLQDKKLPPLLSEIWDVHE

Progesterone receptor = target: T5, Progesterone receptor (Homo sapiens, UniProt P06401); assay: Displacement of radiolabeled progesterone from human progesterone receptor by filter paper assay
T5 sequence (P06401 whole entry): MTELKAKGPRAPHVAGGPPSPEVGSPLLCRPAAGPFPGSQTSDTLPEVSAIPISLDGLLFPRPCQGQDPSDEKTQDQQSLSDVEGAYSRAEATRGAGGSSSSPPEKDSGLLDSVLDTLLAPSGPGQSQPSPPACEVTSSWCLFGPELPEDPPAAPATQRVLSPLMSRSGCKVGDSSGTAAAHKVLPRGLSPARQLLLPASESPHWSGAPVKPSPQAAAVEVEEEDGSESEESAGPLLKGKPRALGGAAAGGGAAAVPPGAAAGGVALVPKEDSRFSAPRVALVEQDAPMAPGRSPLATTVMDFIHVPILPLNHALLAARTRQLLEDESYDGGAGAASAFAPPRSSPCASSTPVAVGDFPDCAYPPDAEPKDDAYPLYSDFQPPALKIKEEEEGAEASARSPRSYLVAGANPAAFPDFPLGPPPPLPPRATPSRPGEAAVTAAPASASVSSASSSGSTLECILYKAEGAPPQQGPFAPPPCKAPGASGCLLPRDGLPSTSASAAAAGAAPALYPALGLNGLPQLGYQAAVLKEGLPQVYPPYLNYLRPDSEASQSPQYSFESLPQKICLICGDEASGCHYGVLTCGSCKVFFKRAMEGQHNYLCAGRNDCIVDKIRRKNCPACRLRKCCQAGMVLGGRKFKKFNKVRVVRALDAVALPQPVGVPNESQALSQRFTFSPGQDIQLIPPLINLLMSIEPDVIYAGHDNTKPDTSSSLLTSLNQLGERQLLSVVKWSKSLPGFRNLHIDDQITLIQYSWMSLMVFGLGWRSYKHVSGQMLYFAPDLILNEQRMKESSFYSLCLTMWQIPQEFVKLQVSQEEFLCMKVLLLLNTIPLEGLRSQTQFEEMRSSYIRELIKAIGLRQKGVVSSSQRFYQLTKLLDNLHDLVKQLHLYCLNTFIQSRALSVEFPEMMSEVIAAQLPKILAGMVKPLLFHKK

Fc1ccc(-c2c3cccc(C(F)(F)F)c3nn2Cc2ccccc2F)cc1
pEC50 (THP-1 [1]): 6.26 | pIC50 [2]: 5.67 | pEC50 (THP-1 [3]): 6.26 | Efficacy (HepG2 [4]): 38% | pIC50 [5]: 6.61 | pEC50 [6]: 5.21 | Efficacy (HepG2 [7]): 72% | pEC50 (HepG2 [8]): 6.00 | Efficacy (THP-1 [9]): 132% | pIC50 (Glucocorticoid receptor): 5.14 | pEC50 [10]: 5.38 | pIC50 (Progesterone receptor): < 5.00

Fc1ccc(-c2c3cccc(C(F)(F)F)c3nn2Cc2ccc(F)cc2Cl)cc1 [LXR-623]
pEC50 (THP-1 [1]): 6.27 | pIC50 [2]: 5.75 | pEC50 (THP-1 [3]): 5.89 | Efficacy (HepG2 [4]): 35% | pIC50 [5]: 6.75 | pEC50 [6]: 5.18 | Efficacy (HepG2 [7]): 58% | pEC50 (HepG2 [8]): 5.72 | Efficacy (THP-1 [9]): 140% | pIC50 (Glucocorticoid receptor): 6.00 | pEC50 [10]: 5.44 | pIC50 (Progesterone receptor): < 6.00

Reference: ChEMBL document CHEMBL1152299, “Indazole-based liver X receptor (LXR) modulators with maintained atherosclerotic lesion reduction activity but diminished stimulation of hepatic triglyceride synthesis” (J Med Chem, 2008)
